Assay results published in US11632953B2, “Method for controlling hematophagous or sap-feeding arthropods” (Board of Supervisors of Louisiana State University and …, priority 2016, dated 2023).
“Also recorded” adds a separate entry of the source. Like-named read-outs stand apart in the source and are kept apart here.

What was measured:
Ae. aegypti [1] = test: mosquito fecundity, eggs laid; format: in vivo, Aedes aegypti; details: 72 h post blood feeding; 3.4 μg/mg mosquito
Description: The mosquitoes were returned to rearing conditions for 24 h, after which they were transferred to individual egg-laying glass tubes 21 mm×70 mm (Fisher Scientific, Pittsburgh, Pa.) with a piece of coffee filter ([…] USA, Clearwater, Fla.) cut to fit the bottom of the tube. The filter was wetted with 150 μl of dH2O, and the open end of the tube was plugged with a cotton ball. The mosquitoes in their individual egg laying tubes were returned to rearing conditions for an additional 48 h, and the number of eggs laid was counted. Any mosquitoes that died during the 72 h period after blood feeding were excluded from the analysis.

hKir2.1 = hKir2.1 (Homo sapiens (Human), UniProt P63252); test: thallium (Tl+) flux assay; format: cell-based
hKir2.1, sequence (P63252 whole entry): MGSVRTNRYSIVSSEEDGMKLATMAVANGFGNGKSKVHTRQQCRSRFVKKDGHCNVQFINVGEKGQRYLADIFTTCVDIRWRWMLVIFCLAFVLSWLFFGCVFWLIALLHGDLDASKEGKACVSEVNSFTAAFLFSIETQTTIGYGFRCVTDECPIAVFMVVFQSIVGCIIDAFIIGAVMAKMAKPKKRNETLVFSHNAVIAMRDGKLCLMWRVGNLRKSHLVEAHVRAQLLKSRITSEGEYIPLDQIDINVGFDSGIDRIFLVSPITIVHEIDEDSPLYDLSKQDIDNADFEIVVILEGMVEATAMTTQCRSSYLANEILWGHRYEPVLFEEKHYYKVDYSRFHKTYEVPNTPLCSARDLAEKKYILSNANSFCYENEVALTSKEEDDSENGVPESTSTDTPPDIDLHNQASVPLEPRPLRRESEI

Kir1.1 = Kir1.1 (Homo sapiens (Human), UniProt P48048); test: thallium (Tl+) flux assay; format: cell-based, mammalian
Kir1.1, sequence (P48048 whole entry): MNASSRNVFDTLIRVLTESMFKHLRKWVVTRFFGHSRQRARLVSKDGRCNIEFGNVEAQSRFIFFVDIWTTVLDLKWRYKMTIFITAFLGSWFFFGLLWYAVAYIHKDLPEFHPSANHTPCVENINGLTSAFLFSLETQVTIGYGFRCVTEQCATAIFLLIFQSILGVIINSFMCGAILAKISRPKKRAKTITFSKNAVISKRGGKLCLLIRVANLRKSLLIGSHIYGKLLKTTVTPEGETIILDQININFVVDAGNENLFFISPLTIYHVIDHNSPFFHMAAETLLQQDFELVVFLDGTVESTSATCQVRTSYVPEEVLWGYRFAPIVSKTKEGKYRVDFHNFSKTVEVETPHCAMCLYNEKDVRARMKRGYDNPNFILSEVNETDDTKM

[2] = test system: isolated tick salivary gland; test: fluid secretion (salivation) in the isolated tick salivary gland, modified Ramsay assay; parameters: species or system Amblyomma americanum; details: isolated tick salivary gland
[3] = test system: isolated tick salivary gland; test: ion secretion in saliva of the isolated tick salivary gland; parameters: species or system Amblyomma americanum
mosquitoes = test: topical toxicity to mosquitoes (species not specified); format: in vivo; details: dose of 10 μg per mg; within 24 h
Ae. aegypti [4] = test: in vivo diuresis assay; parameters: species or system Aedes aegypti; details: topical, 1.7 μg/mg mosquito
Description: The K^+-PBS contained the following (in mM): 92.2 NaCl, 47.5 KCl, 10 Na2HPO4, and 2 KH2PO4 (pH 7.5). Each treatment group of 5 mosquitoes was transferred into a separate graduated, packed-cell volume tube (MidSci, St. Louis, Mo.) and held for 1 h at 28° C. The volume excreted by the mosquitoes was measured visually via the graduated column at the bottom of the tube. At least 8 replicates (5 mosquitoes per replicate) were performed for each treatment.

[5] = test system: honey bees (Apis mellifera); test: acute topical toxicity in adult honey bees; format: in vivo; details: 48 h, VU041 1 mg/bee (~10 μg/mg), bifenthrin 0.1 μg/bee
Description: Frames of late-stage honeybee (A. mellifera) pupae were taken from four colonies at The Ohio State University Honey Bee Lab in Wooster, Ohio, and maintained in a dark humid incubator at 34° C. (Darwin Chambers Co., St. Louis, Mo., model H024) until adult bees emerged. New adults were brushed from frames daily, placed in wooden screen cages (21×14×12 cm), and provided with 1:1 (w/w) sucrose in water.
Acute toxicity experiments in adult bees were performed as follows: Twenty-four hours after emergence, adult honey bees in cages were anaesthetized with carbon dioxide, divided into groups of approximately 20 bees each, and placed in plastic-coated paper cups (177 cm^3; UNIQ Paper Yogurt Cup, Frozen Dessert Supplies, Gilbert, Ariz.) covered with cotton cheesecloth. […] As a positive control, some bees were treated with 3 μl of bifenthrin (0.1 μg/μl). Negative control bees were treated with 3 μl of solvent. Applications were made using a 20 μl micropipette (Fisherbrand Finnpipette F2, Fisher Scientific, Pittsburgh, Pa.) with a disposable plastic tip. […] Toxicity to honey bees was recorded at 48 h, rather than the 24 h used for mosquitoes, to allow for the possibility of delayed toxicity due to the larger body size of the bee. Bees showing no movement 48 h after treatment were scored as dead.

Kir7.1 = Kir7.1 (Homo sapiens (Human), UniProt O60928); test: thallium (Tl+) flux assay; format: cell-based, mammalian
Kir7.1, sequence (O60928 whole entry): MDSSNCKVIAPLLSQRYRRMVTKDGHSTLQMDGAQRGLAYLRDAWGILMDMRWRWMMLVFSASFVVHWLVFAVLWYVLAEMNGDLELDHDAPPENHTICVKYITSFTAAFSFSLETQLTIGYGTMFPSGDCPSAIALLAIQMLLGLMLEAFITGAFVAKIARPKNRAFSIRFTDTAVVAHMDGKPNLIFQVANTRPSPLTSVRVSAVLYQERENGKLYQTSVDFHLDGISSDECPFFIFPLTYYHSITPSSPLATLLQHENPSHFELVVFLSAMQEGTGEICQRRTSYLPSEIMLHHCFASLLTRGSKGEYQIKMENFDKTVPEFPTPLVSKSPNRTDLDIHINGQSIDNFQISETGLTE

[6] = means (n = 3), read-out: IC50 μM (95% Cl)

**Q.** For O=C(Cn1nc(C(F)(F)F)c2c1CCCC2)N1CCCc2ccccc21 [VU041, 1-(3,4-dihydroquinolin-1(2H)-yl)-2-(3-(trifluoromethyl)-4,5,6,7-tetrahydro-1H-indazol-1-yl)ethan-1-one], which “median number of eggs laid per mosquito” value (Ae. aegypti [1]) is on record?
**A.** significantly lower median number of eggs per mosquito

**Q.** What about the IC50 (hKir2.1; SAR libraries, read-out: hKir2.1 IC50) of the same compound?
**A.** 11.3 µM

**Q.** What about the IC50 (hKir2.1; means (n = 3), selectivity panel, read-out: IC50 μM (95% Cl)) of the same compound?
**A.** 12.7 µM

**Q.** What about the inhibition at 30 µM (Kir1.1; concentration of 30 μM) of the same compound?
**A.** < 10%

**Q.** What about the IC50 (Kir1.1; [6]) of the same compound?
**A.** > 30 µM

**Q.** What about the “reduction of salivary output / saliva secretion compared to control” value [2] of the same compound?
**A.** approximately 60%

**Q.** What about the “K+ and Na+ ion secretion rates in salivary droplets” value [3] of the same compound?
**A.** significantly reduced

**Q.** And the lethality against mosquitoes (mosquitoes)?
**A.** ~100%

**Q.** And the “lowering of diuretic capacity compared to controls” value (Ae. aegypti [4])?
**A.** ~51%

**Q.** And the “mortality of adult honey bees” value [5]?
**A.** did not cause significant mortality; also recorded: not toxic

**Q.** And the inhibition at 30 µM (Kir7.1; concentration of 30 μM)?
**A.** < 10%

**Q.** And the IC50 (Kir7.1; [6])?
**A.** > 30 µM
